From paper PMC7728372, “Synthesis and Biological Evaluation of Amino Chalcone Derivatives as Antiproliferative Agents” (Molecules, 2020)
One block for each compound: values may come before it.

How the values were obtained:
MGC-803 cells [1] = assay: Growth curves of MGC-803 cells; type: cell-based, human; settings: MGC-803, after treatment for 72 h
Experimental: Since gastric cancer cell line MGC-803 cells was more sensitive to compound 13e, MGC-803 cells were selected to do further study. The cell viabilities of MGC-803 cells after the treatment with different concentrations of compound 13e for 48 h were presented in Figure 4A, as the concentration rise, cell viability decreased obviously. […] The trends of cell growth were curved with results of cell viabilities after compound 13e treatment. […] We also tested the inhibition activity of compound 13e on normal gastric epithelial cell GES-1.
Figure 4 (A–C) MGC-803 cells inhibition activity of compound 13e […]. (A) Cell viabilities of MGC-803 cells, MGC-803 cells were treated with indicated concentrations of compound 13e for 48 h; (B) Growth curves of MGC-803 cells after the treatment with indicated concentrations of compound 13e for different hours. (C) Cell viabilities of MGC-803 cells and GES-1 cells, cells were treated with indicated concentrations of compound 13e for 48 h. The results shown were representative of three independent experiments.

[2] = tested on: CyclinB1 and CDK1 in MGC-803 cells; assay: Western blotting of cell proliferation related proteins; type: cell-based, human; settings: MGC-803, western blot, 24 h
Experimental: (§1) Gastric cancer cells were seeded in dishes and treated with 13e or DMSO. After 48 h, MGC-803 cells were collected and then lysed. The denatured lysates of each groups were electrophoretic separated in SDS-PAGE. Proteins were then transferred onto PVDF membranes from gels. After blocking for 2 h, membranes were incubated with primary antibodies conjugation. Then, the membranes were washed and incubated with 2nd antibodies. At last, specific proteins were detected.
(§2) Figure 5 Compound 13e inhibited cell proliferation. (A,B) The colony formation of MGC-803 cells after the treatment with indicated concentrations of compound 13e for 7 days; (C) Cell proliferation related proteins in MGC-803 cells of compound 13e after the treatment with indicated concentrations of 13e for 24 h.

GES-1 cells = assay: MTT antiproliferative assay, non-cancer GES-1 cells; type: cell-based; settings: for Fold Selectivity A: A = IC50 (GES-1)/IC50 (MGC-803); for IC50: Homo sapiens, GES1, non-cancer cell line, exposure for 48 h
Experimental: (§3) Cell lines used were cultured in humidified incubator at 37 °C and 5% CO2. The RPMI-1640 medium was supplemented with 10% fetal bovine serum, penicillin (100 U/mL) and streptomycin (0.1 mg/mL).
(§4) Cell lines were seeded into […] and incubated for 24 h. Then cells were treated with different concentrations of compounds. And after another 48 h, MTT reagent (20 μL per well) was added and then incubated at 37 °C for 4 h. Formazan was then dissolved with DMSO. Absorbencies of formazan solution were measured at […]. The IC50 values of tested compounds were calculated by SPSS version 17.0.

MCF-7 cells = assay: MTT antiproliferative assay, MCF-7 cells; type: cell-based, human
Experimental: as §3, §4

MGC-803 cells [3] = assay: MTT antiproliferative assay, MGC-803 cells; type: cell-based, human; settings: exposure for 48 h
Experimental: as §3, §4

MGC-803 cells [4] = assay: Annexin V/PI flow cytometry apoptosis assay; type: cell-based, human; settings: MGC-803, 6 μmol/L, 48 h; control less than 10%
Experimental: (§5) In this work, some other assays including colony formation assay and cell apoptosis assay were referred to our previous work.
(§6) Figure 6 Compound 13e induced cell apoptosis. (A) Cell nucleus (upper panel) and morphology (lower panel) of compound 13e treated (48 h) or untreated MGC-803 cells; (B) Compound 13e induced apoptosis of MGC-803 cells. After incubated with compound 13e for 48 h, MGC-803 cells were detected by Annexin V/PI with flow cytometric analysis. The Q3 represents live cells, Q4 represents early/primary apoptotic cells, Q2 represents late/secondary apoptotic cells and Q1 represents cells necrosis. (C) The percentage of apoptosis (early and late apoptosis) cells increased dependently with various concentrations of compound 13e. Date are represented as mean ± SD of three independent experiments.

MGC-803 cells [5] = assay: Cell colony formation assay; type: cell-based, human
Experimental: To check the effect of compound 13e on cell proliferation, cell colony formatting assay was performed. […] Beside the activity on cell apoptosis, compound 13e inhibited cell proliferation of MGC-803 cells as well.
as §5, §2

HCT-116 cells = assay: MTT antiproliferative assay, HCT-116 cells; type: cell-based, human
Experimental: as §3, §4

[6] = tested on: apoptosis related proteins in MGC-803 cells; assay: Western blotting of apoptosis related proteins; type: cell-based, human; settings: MGC-803, 1.5-6 μmol/L, 48 h
Experimental: as §1
Figure 7 Compound 13e regulated apoptosis related proteins. (A,B) The expression of cell apoptosis related proteins were detected by western blotting. MGC-803 cells were incubated with various concentrations compound 13e (0 μmol/L, 1.5 μmol/L, 3 μmol/L, 6 μmol/L) for 48 h. Date are represented as mean ± SD of three independent experiments.

MGC-803 cells [7] = assay: DAPI fluorescent staining of cell nucleus; type: cell-based, human; settings: MGC-803, high dose treated group, 48 h
Experimental: Cells were seeded in 6-welled plate, then treated with different concentration of compounds for 48 h. The treated and untreated cells were washed with PBS buffer. Then fixed with 4% paraformaldehyde for 10 min in dark. After washed with PBS buffer, cells were stained by 2 μg/mL DAPI solution containing 0.1% triton X-100 for 30 min. Discard the solution and wash the cells with PBS buffer. Capture the images with a fluorescence microscope.
as §6

[8] = Homo sapiens, MCF7, exposure for 48 h
[9] = Homo sapiens, HCT-116, exposure for 48 h

Compound: COc1cc(/C=C/C(=O)c2ccc(NC(=O)CCCCl)cc2)cc(OC)c1OC [Compound 13e]
- Dose from which cell growth is inhibited (MGC-803 cells [1]): ≥ 0.75 µmol/L
- CDK1 protein level [2]: down-regulated
- CyclinB1 protein level [2]: down-regulated
- Fold Selectivity A (GES-1 cells): 5.4 fold
- IC50 (GES-1 cells): 8.22 µM
- Concentration range of selective inhibitory effect on cancer cells (GES-1 cells; MGC-803 versus GES-1, 48 h): below 2 μmol/L
- Inhibition activity on GES-1 compared with MGC-803 (GES-1 cells; cell viability, 48 h, Figure 4C): lower inhibition activity on GES-1 than gastric cancer cell MGC-803
- IC50 (MCF-7 cells; [8]): 2.54 ± 0.18 µM
- IC50 (MGC-803 cells [3]; Homo sapiens, MGC-803, 48 h): 1.54 µM
- IC50 (MGC-803 cells [3]): 1.52 ± 0.12 µM
- Rate of apoptosis cells (early and late) (MGC-803 cells [4]): 86.7%
- Concentration at which colonies were evidently reduced (MGC-803 cells [5]; MGC-803, 7 days treatment, compared to control): greater than 0.5 μmol/L
- Colony formation of MGC-803 cells (MGC-803 cells [5]; result in words): inhibited the colony formation
- IC50 (HCT-116 cells; [9]): 1.83 ± 0.2 µM
- Bcl-2 expression [6]: down regulated
- Caspase3/7 [6]: cleaved (activated)
- Caspase8 [6]: cleaved (activated)
- Caspase12 [6]: cleaved (activated)
- DR5 expression [6]: up regulated
- Noxa expression [6]: up regulated
- PARP [6]: cleaved
- XIAP expression [6]: decreased
- c-IAP1 expression [6]: decreased
- t-Bid [6]: increase
- melting point: 170 to 171 °C
- Cell nucleus morphology (DAPI) (MGC-803 cells [7]): concentrated and fragmented

Compound: COc1cc(/C=C/C(=O)c2ccc(NC(=O)CCCCCl)cc2)cc(OC)c1OC [Compound 13f]
- IC50 (MCF-7 cells; [8]): 4.45 ± 0.11 µM
- IC50 (MGC-803 cells [3]; Homo sapiens, MGC-803, 48 h): 3.01 ± 0.11 µM
- IC50 (HCT-116 cells; [9]): 4.28 ± 0.32 µM
- melting point: 125 to 126 °C

Compound: (E)-N-(4-(3-oxo-3-(3,4,5-trimethoxyphenyl) prop-1-en-1-yl) phenyl) acetamide [Compound 13a]
- IC50 (MCF-7 cells; exposure for 48 h): 3.56 ± 0.17 µM
- IC50 (MGC-803 cells [3]): 3.81 ± 0.22 µM

Compound: (E)-N-(4-(3-oxo-3-(3,4,5-trimethoxyphenyl) prop-1-en-1-yl)phenyl) pentanamide [Compound 13b]
- IC50 (MCF-7 cells; exposure for 48 h): 3.11 ± 0.34 µM
- IC50 (MGC-803 cells [3]): 4.08 ± 0.24 µM
- IC50 (HCT-116 cells; exposure for 48 h): 6.72 ± 0.28 µM

Continued, in another order:

- IC50 (MCF-7 cells; [8]): 2.06 ± 0.21 µM
- IC50 (MGC-803 cells [3]; Homo sapiens, MGC-803, 48 h): 1.83 ± 0.2 µM
- IC50 (MGC-803 cells [3]): 1.52 µM
- IC50 (HCT-116 cells; [9]): 1.12 ± 0.11 µM
- melting point: 178 to 179 °C
Compound: C=CC(=O)Nc1ccc(/C=C/C(=O)c2cc(OC)c(OC)c(OC)c2)cc1 [Compound 13g, (E)-N-(4-(3-oxo-3-(3,4,5-trimethoxyphenyl)prop-1-en-1-yl)phenyl) acrylamide]
- Fold Selectivity A (GES-1 cells): 5.4 fold
- IC50 (GES-1 cells): 8.22 µM

- IC50 (MCF-7 cells; [8]): 22.2 ± 0.83 µM
- IC50 (MGC-803 cells [3]; Homo sapiens, MGC-803, 48 h): 22.1 ± 0.75 µM
- IC50 (HCT-116 cells; [9]): 13.1 ± 0.51 µM
- melting point: 161 to 162 °C
Compound: O=C(CCCCl)Nc1ccc(C(=O)/C=C/c2ccccc2)cc1 [Compound 13h]

- IC50 (MCF-7 cells; [8]): > 40 µM
- IC50 (MGC-803 cells [3]; Homo sapiens, MGC-803, 48 h): > 40 µM
- IC50 (HCT-116 cells; [9]): > 40 µM
- melting point: 167 to 168 °C
Compound: O=C(CCCCl)Nc1ccc(C(=O)/C=C/c2ccc(F)cc2)cc1 [Compound 13j]

- IC50 (MCF-7 cells; [8]): 10.1 ± 0.73 µM
- IC50 (MGC-803 cells [3]; Homo sapiens, MGC-803, 48 h): 16.3 ± 0.65 µM
- IC50 (HCT-116 cells; [9]): > 40 µM
- melting point: 166 to 167 °C
Compound: COc1ccc(/C=C/C(=O)c2ccc(NC(=O)CCCCl)cc2)cc1OC [Compound 13l]

- IC50 (MCF-7 cells; exposure for 48 h): 17.6 ± 0.51 µM
- IC50 (MGC-803 cells [3]): 16.8 ± 0.82 µM
- IC50 (HCT-116 cells; exposure for 48 h): 13.1 ± 0.61 µM
Compound: (E)-4-chloro-N-(4-(3-oxo-3-(p-tolyl)prop-1-en-1-yl)phenyl)butanamide [Compound 13i]

- IC50 (MCF-7 cells; exposure for 48 h): > 40 µM
- IC50 (MGC-803 cells [3]): > 40 µM
- IC50 (HCT-116 cells; exposure for 48 h): > 40 µM
Compound: (E)-N-(4-(3-(4-bromophenyl)-3-oxoprop-1-en-1-yl) phenyl)-4-chlorobutanamide [Compound 13k]
